Results reported in ChEMBL document CHEMBL1201862, “PubChem BioAssay data set” (2004).
Where a name gives a salt, the structure may show the parent alone. Active and inactive are the calls of the source.

Assays:
[1] = Late-stage results from the probe development effort to identify antagonists of arginine vasopressin receptor 1a (AVPR1a): fluorescence-based cell-based dose response AVPR1a inhibition assay.; format: functional
[2] = Late-stage results from the probe development effort to identify antagonists of arginine vasopressin receptor 1a (AVPR1a): fluorescence-based cell-based dose response OXTR inhibition counterscreen assay.; format: functional
[3] = biological target: Vasopressin V2 receptor (Homo sapiens, UniProt P30518); assay: Late-stage results from the probe development effort to identify antagonists of arginine vasopressin receptor 1a (AVPR1a): fluorescence-based cell-based dose response AVPR2 inhibition counterscreen assay.; format: functional
[4] = biological target: Vasopressin V1b receptor (Homo sapiens, UniProt P47901); assay: Late-stage results from the probe development effort to identify antagonists of arginine vasopressin receptor 1a (AVPR1a): fluorescence-based cell-based dose response AVPR1b inhibition counterscreen assay.; format: functional
[5] = viability loss in A549 lung cells – cell-based, 24 h, CellTiter-Glo luminescence, cherry-picks, cytotoxicity control, dose response (AID 1053115); format: functional; settings: A549, 24 h
[6] = IC50 of Artemis nuclease activity blockers – biochemical, fluorescence intensity, dose response (AID 720701); format: functional;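 also: Artemis endonuclease enzyme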
[7] = Trypanosoma cruzi growth suppression in host cells – NIH3T3 host cells, beta-gal luminescence, confirmation (AID 2044); format: functional, cell-based;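 also: intracellular parasites grown in NIH/3T3 mouse fibroblasts as host cells; luminescent beta-galactosidase reporter signal from transgenic T. cruzi replicating inside host cells; inhibitors lower the luminescence signal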
[8] = NIH3T3 cell viability loss – ATP luminescence, mouse fibroblasts, counter-screen, dose response (AID 2010); format: functional, cell-based;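 also: cells exposed to compound for about 90 hours before reading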
[9] = viability loss in THP-1 monocytes – THP-1 cells, cytotoxicity control for Vif-APOBEC3G degradation inhibitor project, dose response (AID 1117359); format: functional; settings: THP-1
[10] = Dd2 parasite growth inhibition in erythrocytes – SYBR Green, dry powder samples, set 9, dose response (AID 1159568); format: functional, cell-based
[11] = growth inhibition of yeast DHODH-expressing 3D7 parasites – SYBR Green, dry powder samples, dose response (AID 1159570); format: functional, cell-based;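 also: parasite growth measured after 72 hours of compound exposure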
[12] = Dd2 malaria parasite growth inhibition potency – SYBR Green, dry powder samples, dose response (AID 1159566); format: functional, cell-based;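 also: potency for growth inhibition with lower SYBR green DNA signal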
[13] = growth inhibition of PfATP4-mutant resistant parasites – NITD609-resistant line, SYBR Green, dry powder, dose response (AID 1159571); format: functional, cell-based;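 also: parasites synchronized at ring stage by sorbitol before testing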
[14] = toxicity to human HepG2 hepatoma cells – cell-based, plate reader, dry powder samples, cytotoxicity control, dose response (AID 1159569); format: functional;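 also: inhibitor potency with signal falling toward the positive control level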
[15] = toxicity to human hepatoma HepG2 cells – cell-based, cherry-picked samples, cytotoxicity control, dose response (AID 1159577); format: functional
[16] = P. falciparum Dd2 growth inhibitors, dose response, SYBR Green, cherry-picked samples (AID 1159567); format: functional, cell-based
[17] = Potency on glucagon-like peptide 1 release, dose-response in NCI-H716 cell line, half maximal inhibitory concentration (AID 1117344); format: functional, cell-based
[18] = glucagon-like peptide-1 release potency in STC-1, concentration-response, half-maximal inhibitory concentration in the STC-1 line (AID 1117345); format: functional, cell-based
[19] = SNU-C1 cell viability reduction, dose response, CellTiter-Glo luminescence (AID 1117323); format: functional, cell-based
[20] = RKO cell viability reduction, dose response, CellTiter-Glo luminescence (AID 1117322); format: functional
[21] = Reduced DLD-1 viability, concentration-response, CellTiter-Glo luminescence (AID 1117352); format: functional
[22] = cytotoxicity toward Colo320 cells – cell-based, CellTiter-Glo luminescence, IC50, dose response (AID 1117334); format: functional; settings: COLO 320
[23] = cytotoxicity toward HCT116 cells – cell-based, CellTiter-Glo luminescence, IC50, dose response (AID 1117332); format: functional; settings: HCT-116
[24] = CellTiter-Glo luminescence survival assay, SW480 colon tumor line, concentration-response curve, half-maximal inhibitory concentration (AID 1117338); format: functional
[25] = cytotoxicity toward HT-29 cells – cell-based, CellTiter-Glo luminescence, IC50, dose response (AID 1117330); format: functional
[26] = HCT116 cell viability decrease, GSK3B pretreatment – CellTiter-Glo, IC50, dose response (AID 1117339); format: functional; settings: HCT-116

Sequence of Vasopressin V1b receptor (P47901 whole entry): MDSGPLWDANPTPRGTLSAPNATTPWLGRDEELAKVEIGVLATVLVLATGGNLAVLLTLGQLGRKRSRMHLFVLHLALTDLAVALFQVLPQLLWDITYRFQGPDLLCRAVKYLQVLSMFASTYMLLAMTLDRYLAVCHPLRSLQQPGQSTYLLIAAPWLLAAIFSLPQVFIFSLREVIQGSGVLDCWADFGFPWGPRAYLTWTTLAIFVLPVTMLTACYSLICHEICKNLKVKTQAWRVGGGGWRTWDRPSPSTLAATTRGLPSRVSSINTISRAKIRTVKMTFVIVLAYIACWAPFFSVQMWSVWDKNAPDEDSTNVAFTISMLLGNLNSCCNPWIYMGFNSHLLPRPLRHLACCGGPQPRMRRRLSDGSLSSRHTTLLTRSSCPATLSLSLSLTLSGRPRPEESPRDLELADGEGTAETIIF
Sequence of Vasopressin V2 receptor (P30518 whole entry): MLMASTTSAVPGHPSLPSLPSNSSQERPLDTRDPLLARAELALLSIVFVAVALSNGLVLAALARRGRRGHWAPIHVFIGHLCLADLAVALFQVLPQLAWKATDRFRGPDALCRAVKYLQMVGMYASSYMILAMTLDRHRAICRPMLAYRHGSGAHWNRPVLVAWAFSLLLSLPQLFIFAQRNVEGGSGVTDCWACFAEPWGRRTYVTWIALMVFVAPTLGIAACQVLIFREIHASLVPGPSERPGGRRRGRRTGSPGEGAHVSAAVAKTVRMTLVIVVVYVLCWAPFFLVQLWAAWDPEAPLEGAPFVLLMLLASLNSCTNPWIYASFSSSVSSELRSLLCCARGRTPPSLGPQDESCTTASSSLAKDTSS

O=C(N1CCC2(CC1)OCc1ccccc12)N(CC1CC1)c1ccccc1
IC50 [1]: 0.466 µM (active) | IC50 [2]: 20 µM (inactive) | IC50 [3]: 20 µM (inactive) | IC50 [4]: 25.1 µM (inactive)

C[C@@H](O)C#Cc1ccc2c(c1)O[C@@H](CN(C)Cc1ccccc1)[C@@H](C)CN([C@@H](C)CO)S2(=O)=O
AC50 [5]: > 60 µM (inactive)

N#Cc1ccc(-c2ccc3c(c2)[C@H]2[C@H](CCN2C(=O)C2CCCCC2)[C@@H](CO)N3)cc1
AC50 [5]: 48.7 µM (active)

O=C(NC(C(=O)N/N=C/c1c2ccccc2cc2ccccc12)c1nnc(O)c2ccccc12)c1ccccc1 (stereo not drawn)
IC50 [6]: > 20 µM (inactive)

COc1cccc(/C=N/NC(N)=S)c1OCc1ccccc1Cl
EC50 [7]: 1.18 µM (active) | EC50 [8]: > 30 µM (not active) | CC50 [9]: > 40 µM (active)

O=C(NCC[C@H]1CC[C@H](NC(=O)c2ccccc2F)[C@@H](CO)O1)c1cnccn1
AC50 [10]: 11 µM (active)

COc1ccc(C#Cc2ccc([C@@H]3[C@H](CO)N4CCCCN(C(=O)Nc5ccccc5F)C[C@@H]34)cc2)cc1
AC50 [11]: 1.02 µM (active) | AC50 [12]: 0.898 µM (active) | AC50 [13]: 0.771 µM (active) | AC50 [14]: 8.16 µM (active) | AC50 [15]: 9.73 µM (active) | AC50 [16]: 1.42 µM (active)

COc1ccc(C#Cc2ccc([C@@H]3[C@@H](CO)N4CCCCN(C(=O)Nc5cccc(F)c5)C[C@H]34)cc2)cc1
AC50 [11]: 0.738 µM (active) | AC50 [12]: 0.083 µM (active) | AC50 [13]: 0.698 µM (active) | AC50 [14]: 7.51 µM (active) | AC50 [16]: 1.66 µM (active) | AC50 [10]: 1.35 µM (active)

Cc1nnc2n1-c1sc(CCc3ccc(CC(C)C)cc3)cc1C(c1ccccc1Cl)=NC2C (stereo not drawn) [ISRAPAFANT]
IC50 [17]: 24.7 µM (inactive) | IC50 [18]: > 40 µM (inactive)

Cc1cccc(Nc2cc(Cl)nc(SCC(=O)O)n2)c1C [PIRINIXIC ACID]
IC50 [19]: > 20 µM (inactive) | IC50 [20]: > 20 µM (inactive) | IC50 [21]: > 20 µM (inactive) | IC50 [22]: > 20 µM (inactive) | IC50 [23]: > 20 µM (inactive) | IC50 [24]: > 20 µM (inactive) | IC50 [25]: > 20 µM (inactive) | IC50 [26]: > 20 µM (inactive)

C[C@@H]1CN(CCCn2c3ccccc3c3ccccc32)C[C@H](C)N1 [RIMCAZOLE HYDROCHLORIDE]
IC50 [19]: 6.02 µM (inactive) | IC50 [20]: 2.18 µM (active) | IC50 [21]: 9.8 µM (inactive) | IC50 [22]: 15.9 µM (inactive) | IC50 [23]: 10.5 µM (inactive) | IC50 [24]: 2.35 µM (active) | IC50 [17]: 6.37 µM (inactive) | IC50 [18]: > 40 µM (inactive) | IC50 [25]: 4.02 µM (active) | IC50 [26]: 3.85 µM (active)
